Data reported in patent publication US8802849B2, “Tricyclic benzo[4,5]thieno-[2,3-d]pyrimidine-4-yl-amin derivatives, their salts, process for producing the compounds and their pharmaceutical use” (Vichem Chemie Kutató Kft., priority 2008, dated 2014).

Legend:
RSK1 = RSK1 (Homo sapiens, UniProt Q15418); test: RSK1 kinase assay; type: biochemical; details: 10 μM compound; read-out: RSK1 percent of inhibition
Description: (§1) General description of the kinase assays: the kinase activity was assayed in 96-well microtiter plates at a final compound concentration of 10 μM in a total volume of 50 μl. Compounds were dissolved in 100% DMSO to prepare a 10 mM stock solution and than diluted with buffer to reach a 10 μM (or the required) final concentration. The kinase concentration was used to yield 10% ATP turn over. The ATP concentration was used at the KmATP and 12.5 μCi/ml adenosine 5′[γ-33P]triphosphate. The substrate concentration was used at 5 fold excess over the Km for the substrate. The reaction was incubated for 1 hour at room temperature and stopped by addition of 10 μl 50 mM EDTA. The assay was transferred to a 96 well MAPH filter plate (Millipore). The radioactivity was counted on a Microbeta microplate counter.

P56Lck = P56Lck (Homo sapiens, UniProt P06239); test: P56Lck kinase assay; type: biochemical; details: 10 μM compound; read-out: P56Lck percent of inhibition
Sequence of P56Lck (P06239 whole entry, species assumed): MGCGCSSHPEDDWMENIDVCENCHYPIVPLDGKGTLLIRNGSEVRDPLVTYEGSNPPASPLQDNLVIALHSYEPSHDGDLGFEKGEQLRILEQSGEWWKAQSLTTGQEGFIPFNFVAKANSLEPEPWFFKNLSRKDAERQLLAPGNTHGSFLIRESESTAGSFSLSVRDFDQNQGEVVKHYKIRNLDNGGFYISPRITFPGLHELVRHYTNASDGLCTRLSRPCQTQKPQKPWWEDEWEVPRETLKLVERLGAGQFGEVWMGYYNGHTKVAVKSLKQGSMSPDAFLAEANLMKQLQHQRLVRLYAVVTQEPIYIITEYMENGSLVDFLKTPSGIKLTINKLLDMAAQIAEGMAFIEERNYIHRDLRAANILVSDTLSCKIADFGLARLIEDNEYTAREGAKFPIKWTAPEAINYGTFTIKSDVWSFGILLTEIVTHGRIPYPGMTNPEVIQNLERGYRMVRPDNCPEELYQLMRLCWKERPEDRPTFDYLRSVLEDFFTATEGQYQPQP
Description: as §1

Abl = Abl (Homo sapiens, UniProt P00519); test: Abl kinase assay; type: biochemical; details: 10 μM compound; read-out: Abl percent of inhibition
Sequence of Abl (P00519 whole entry, species assumed): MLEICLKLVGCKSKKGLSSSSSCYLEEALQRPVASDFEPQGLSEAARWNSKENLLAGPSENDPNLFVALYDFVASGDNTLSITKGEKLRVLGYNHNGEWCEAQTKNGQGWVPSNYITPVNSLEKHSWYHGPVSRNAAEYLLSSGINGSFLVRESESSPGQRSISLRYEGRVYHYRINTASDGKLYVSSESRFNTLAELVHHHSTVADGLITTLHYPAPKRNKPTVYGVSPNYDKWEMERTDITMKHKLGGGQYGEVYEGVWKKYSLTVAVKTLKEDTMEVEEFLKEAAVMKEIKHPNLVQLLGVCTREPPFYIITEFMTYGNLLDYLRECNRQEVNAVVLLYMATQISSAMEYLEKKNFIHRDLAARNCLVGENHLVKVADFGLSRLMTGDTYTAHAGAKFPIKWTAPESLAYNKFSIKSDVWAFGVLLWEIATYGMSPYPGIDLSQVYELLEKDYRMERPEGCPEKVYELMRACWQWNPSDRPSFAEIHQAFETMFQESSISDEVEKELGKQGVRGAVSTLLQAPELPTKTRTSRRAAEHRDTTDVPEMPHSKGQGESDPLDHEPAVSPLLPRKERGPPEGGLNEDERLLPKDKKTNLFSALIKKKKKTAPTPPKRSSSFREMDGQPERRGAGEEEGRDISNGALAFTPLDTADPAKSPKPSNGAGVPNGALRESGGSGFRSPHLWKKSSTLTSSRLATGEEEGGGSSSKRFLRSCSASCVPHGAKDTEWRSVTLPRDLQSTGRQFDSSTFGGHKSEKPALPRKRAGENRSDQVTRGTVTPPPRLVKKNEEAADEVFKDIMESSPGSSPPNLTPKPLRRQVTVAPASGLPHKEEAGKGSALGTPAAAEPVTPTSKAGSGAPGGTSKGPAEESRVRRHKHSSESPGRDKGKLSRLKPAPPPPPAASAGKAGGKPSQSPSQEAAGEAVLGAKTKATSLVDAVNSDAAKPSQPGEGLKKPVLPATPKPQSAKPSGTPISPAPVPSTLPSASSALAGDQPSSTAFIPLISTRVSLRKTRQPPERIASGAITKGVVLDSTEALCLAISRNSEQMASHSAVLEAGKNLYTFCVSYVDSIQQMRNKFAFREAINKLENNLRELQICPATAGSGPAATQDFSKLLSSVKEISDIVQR
Description: as §1

cMet = cMet (Homo sapiens, UniProt P08581); test: cMet kinase assay; type: biochemical; details: 10 μM compound; read-out: cMet percent of inhibition
Description: as §1

InsR = InsR (Homo sapiens, UniProt P06213); test: InsR kinase assay; type: biochemical; details: 10 μM compound; read-out: InsR percent of inhibition
Description: as §1

CK1-alpha = CK1-alpha (Homo sapiens, UniProt P48729); test: CK1-alpha kinase assay; type: biochemical; details: 10 μM compound; read-out: CK1-alpha percent of inhibition
Description: as §1

AKT1/PKBa = AKT1/PKBa (Homo sapiens, UniProt P31749); test: AKT1/PKBa kinase assay; type: biochemical; details: 10 μM compound; read-out: AKT1/PKBa percent of inhibition
Description: as §1

CDK2/CycA = CDK2/CycA (Homo sapiens, UniProt P24941); test: CDK2/CycA kinase assay; type: biochemical; details: 10 μM compound; read-out: CDK2/CycA percent of inhibition
Description: as §1

P70S6K = P70S6K (Homo sapiens, UniProt P23443); test: P70S6K kinase assay; type: biochemical; details: 10 μM compound; read-out: P70S6K percent of inhibition
Description: as §1

MAPK-ERK1 = MAPK-ERK1 (Homo sapiens, UniProt P27361); test: MAPK-ERK1 kinase assay; type: biochemical; details: 10 μM compound; read-out: MAPK-ERK1 percent of inhibition
Description: as §1

IKK-beta = biological target: T1, IKK-beta (Homo sapiens, UniProt O14920); test: IKK-beta kinase assay; type: biochemical; details: 10 μM compound; read-out: IKK-beta percent of inhibition
T1 sequence (O14920 1-756): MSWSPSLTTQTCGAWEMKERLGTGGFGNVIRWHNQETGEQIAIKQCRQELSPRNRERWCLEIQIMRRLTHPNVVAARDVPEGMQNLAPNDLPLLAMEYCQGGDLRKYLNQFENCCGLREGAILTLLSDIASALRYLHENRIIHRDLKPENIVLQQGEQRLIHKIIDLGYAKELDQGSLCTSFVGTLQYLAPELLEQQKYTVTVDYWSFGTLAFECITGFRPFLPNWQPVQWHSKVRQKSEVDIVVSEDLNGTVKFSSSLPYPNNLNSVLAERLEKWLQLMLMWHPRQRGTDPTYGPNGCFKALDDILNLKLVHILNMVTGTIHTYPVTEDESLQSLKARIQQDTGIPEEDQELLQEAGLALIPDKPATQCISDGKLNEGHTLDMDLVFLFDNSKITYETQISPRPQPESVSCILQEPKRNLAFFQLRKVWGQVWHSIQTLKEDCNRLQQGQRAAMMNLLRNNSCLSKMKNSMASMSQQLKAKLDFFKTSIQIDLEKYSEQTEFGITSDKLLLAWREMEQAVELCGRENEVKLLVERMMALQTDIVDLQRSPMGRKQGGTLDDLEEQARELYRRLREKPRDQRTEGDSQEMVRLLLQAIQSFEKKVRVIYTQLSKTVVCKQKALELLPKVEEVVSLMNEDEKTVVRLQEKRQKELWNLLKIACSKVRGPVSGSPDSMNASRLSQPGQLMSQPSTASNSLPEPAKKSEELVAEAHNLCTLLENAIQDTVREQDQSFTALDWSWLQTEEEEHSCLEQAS
Description: as §1

Jnk1a1 = Jnk1a1 (Homo sapiens, UniProt P45983); test: Jnk1a1 kinase assay; type: biochemical; details: 10 μM compound; read-out: Jnk1a1 percent of inhibition
Description: as §1

EGFR = EGFR (Homo sapiens, UniProt P00533); test: EGFR kinase assay (33P-ATP filter plate); type: biochemical; details: for inhibition at 10 µM: 10 μM compound, read-out: EGFR percent of inhibition; for IC50: EGFR-PTK assay
Description: as §1

SRPK1 = SRPK1 (Homo sapiens, UniProt Q96SB4); test: SRPK1 kinase assay; type: biochemical; details: 10 μM compound; read-out: SRPK1 percent of inhibition
Description: as §1

ROCK2 = ROCK2 (Homo sapiens, UniProt O75116); test: ROCK2 kinase assay; type: biochemical; details: 10 μM compound; read-out: ROCK2 percent of inhibition
Sequence of ROCK2 (O75116 whole entry, species assumed): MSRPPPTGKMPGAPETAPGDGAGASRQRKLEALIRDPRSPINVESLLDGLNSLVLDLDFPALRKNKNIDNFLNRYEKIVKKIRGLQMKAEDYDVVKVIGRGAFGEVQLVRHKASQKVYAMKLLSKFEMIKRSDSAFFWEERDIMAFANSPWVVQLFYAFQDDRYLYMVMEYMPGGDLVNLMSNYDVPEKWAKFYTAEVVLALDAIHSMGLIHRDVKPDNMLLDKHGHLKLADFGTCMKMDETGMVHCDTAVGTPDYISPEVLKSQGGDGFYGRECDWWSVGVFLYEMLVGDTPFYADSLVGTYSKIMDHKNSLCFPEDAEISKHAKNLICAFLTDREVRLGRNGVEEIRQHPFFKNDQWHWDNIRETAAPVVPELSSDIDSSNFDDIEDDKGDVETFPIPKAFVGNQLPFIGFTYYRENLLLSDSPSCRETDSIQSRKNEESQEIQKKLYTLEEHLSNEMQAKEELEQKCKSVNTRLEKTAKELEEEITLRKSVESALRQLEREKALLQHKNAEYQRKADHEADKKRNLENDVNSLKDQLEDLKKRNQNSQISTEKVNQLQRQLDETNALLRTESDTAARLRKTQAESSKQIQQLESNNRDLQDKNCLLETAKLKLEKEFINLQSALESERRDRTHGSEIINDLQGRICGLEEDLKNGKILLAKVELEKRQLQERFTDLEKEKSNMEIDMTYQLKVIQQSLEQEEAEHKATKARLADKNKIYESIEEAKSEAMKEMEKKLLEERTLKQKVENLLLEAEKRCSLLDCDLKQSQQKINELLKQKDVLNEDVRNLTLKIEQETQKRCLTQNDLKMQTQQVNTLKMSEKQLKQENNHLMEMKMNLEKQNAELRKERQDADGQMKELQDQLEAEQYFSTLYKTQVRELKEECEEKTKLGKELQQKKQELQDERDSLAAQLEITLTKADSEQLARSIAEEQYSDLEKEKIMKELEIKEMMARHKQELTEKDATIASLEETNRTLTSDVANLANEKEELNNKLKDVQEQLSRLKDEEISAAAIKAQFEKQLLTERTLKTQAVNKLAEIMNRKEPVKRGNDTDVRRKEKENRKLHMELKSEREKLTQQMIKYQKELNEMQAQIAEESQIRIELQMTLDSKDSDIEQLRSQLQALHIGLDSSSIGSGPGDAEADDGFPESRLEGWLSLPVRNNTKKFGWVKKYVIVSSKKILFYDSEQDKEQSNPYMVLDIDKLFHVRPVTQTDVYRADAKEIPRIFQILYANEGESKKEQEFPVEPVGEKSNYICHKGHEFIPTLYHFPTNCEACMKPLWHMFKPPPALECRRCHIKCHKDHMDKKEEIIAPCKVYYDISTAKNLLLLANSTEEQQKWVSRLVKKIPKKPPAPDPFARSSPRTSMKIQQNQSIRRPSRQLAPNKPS
Description: as §1

c-Src = c-Src (Homo sapiens, UniProt P12931); test: c-Src kinase assay; type: biochemical; details: 10 μM compound; read-out: c-Src percent of inhibition
Description: as §1

Kit = Kit (Homo sapiens, UniProt P10721); test: Kit kinase assay; type: biochemical; details: 10 μM compound; read-out: Kit percent of inhibition
Sequence of Kit (P10721 26-976, species assumed): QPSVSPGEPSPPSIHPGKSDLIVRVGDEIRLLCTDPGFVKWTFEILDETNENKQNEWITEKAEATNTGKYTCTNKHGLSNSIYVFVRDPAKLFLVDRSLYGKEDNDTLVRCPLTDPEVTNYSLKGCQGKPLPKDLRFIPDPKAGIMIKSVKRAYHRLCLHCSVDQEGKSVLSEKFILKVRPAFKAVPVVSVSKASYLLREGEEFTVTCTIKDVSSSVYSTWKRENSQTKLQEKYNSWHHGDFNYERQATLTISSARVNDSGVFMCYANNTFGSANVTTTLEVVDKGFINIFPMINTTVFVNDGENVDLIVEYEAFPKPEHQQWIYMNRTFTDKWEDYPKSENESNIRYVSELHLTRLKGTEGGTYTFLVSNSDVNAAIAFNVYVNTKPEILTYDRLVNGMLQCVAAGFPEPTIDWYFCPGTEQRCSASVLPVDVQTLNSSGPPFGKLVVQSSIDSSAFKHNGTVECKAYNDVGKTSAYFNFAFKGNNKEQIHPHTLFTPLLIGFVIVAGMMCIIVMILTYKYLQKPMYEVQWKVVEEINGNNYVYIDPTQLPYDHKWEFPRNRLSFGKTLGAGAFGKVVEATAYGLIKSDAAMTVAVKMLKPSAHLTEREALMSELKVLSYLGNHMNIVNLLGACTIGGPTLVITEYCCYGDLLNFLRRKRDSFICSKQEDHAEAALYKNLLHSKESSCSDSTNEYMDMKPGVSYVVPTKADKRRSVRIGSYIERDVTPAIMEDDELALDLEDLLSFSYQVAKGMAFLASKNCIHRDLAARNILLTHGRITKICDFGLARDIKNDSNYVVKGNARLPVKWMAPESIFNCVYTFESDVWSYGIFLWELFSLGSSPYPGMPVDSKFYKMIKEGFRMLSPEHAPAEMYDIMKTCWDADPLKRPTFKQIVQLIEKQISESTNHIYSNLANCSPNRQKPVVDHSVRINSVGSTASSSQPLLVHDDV
Description: as §1

c-Raf = c-Raf (Homo sapiens, UniProt P04049); test: c-Raf kinase assay; type: biochemical; details: 10 μM compound; read-out: c-Raf percent of inhibition
Sequence of c-Raf (P04049 whole entry, species assumed): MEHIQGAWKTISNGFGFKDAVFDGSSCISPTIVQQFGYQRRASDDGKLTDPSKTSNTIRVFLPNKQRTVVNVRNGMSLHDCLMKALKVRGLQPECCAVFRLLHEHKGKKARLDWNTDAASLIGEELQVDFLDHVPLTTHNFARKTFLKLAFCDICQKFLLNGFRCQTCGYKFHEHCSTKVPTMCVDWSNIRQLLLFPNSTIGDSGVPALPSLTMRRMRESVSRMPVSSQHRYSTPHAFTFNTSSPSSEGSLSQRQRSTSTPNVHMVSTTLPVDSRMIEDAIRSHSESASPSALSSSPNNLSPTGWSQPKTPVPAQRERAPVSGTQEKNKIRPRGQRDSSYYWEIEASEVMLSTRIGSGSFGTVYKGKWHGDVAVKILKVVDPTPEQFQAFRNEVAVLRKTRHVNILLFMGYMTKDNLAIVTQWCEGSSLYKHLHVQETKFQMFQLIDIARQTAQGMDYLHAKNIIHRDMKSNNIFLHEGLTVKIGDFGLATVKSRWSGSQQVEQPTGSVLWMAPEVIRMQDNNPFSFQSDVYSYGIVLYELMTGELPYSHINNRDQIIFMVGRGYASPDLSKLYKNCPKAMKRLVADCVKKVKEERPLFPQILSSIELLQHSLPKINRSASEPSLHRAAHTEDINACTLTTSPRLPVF
Description: as §1

GSK-3beta = GSK-3beta (Homo sapiens, UniProt P49841); test: GSK-3beta kinase assay; type: biochemical; details: 10 μM compound; read-out: GSK-3beta percent of inhibition
Sequence of GSK-3beta (P49841 whole entry, species assumed): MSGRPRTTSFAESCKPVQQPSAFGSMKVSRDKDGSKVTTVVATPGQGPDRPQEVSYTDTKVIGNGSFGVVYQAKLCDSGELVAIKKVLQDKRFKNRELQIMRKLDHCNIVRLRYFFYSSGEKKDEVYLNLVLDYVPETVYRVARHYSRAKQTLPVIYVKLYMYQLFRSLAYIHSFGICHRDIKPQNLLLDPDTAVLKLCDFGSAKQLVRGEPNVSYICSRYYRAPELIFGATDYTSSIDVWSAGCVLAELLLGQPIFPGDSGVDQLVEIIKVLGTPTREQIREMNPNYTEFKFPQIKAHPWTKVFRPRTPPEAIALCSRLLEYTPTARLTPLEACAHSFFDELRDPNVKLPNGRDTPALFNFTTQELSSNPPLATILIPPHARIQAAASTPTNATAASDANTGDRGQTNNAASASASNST
Description: as §1

PDGFR-beta = PDGFR-beta (Homo sapiens, UniProt P09619); test: PDGFR-beta kinase assay; type: biochemical; details: 10 μM compound; read-out: PDGFR-beta percent of inhibition
Description: as §1

inhibition at 10 µM (RSK1) [%] | inhibition at 10 µM (P56Lck) [%] | inhibition at 10 µM (Abl) [%] | inhibition at 10 µM (cMet) [%] | inhibition at 10 µM (InsR) [%] | inhibition at 10 µM (CK1-alpha) [%] | inhibition at 10 µM (AKT1/PKBa) [%] | inhibition at 10 µM (CDK2/CycA) [%] | inhibition at 10 µM (P70S6K) [%] | inhibition at 10 µM (MAPK-ERK1) [%] | inhibition at 10 µM (IKK-beta) [%] | inhibition at 10 µM (Jnk1a1) [%] | inhibition at 10 µM (EGFR) [%] | inhibition at 10 µM (SRPK1) [%] | inhibition at 10 µM (ROCK2) [%] | inhibition at 10 µM (c-Src) [%] | inhibition at 10 µM (Kit) [%] | inhibition at 10 µM (c-Raf) [%] | inhibition at 10 µM (GSK-3beta) [%] | inhibition at 10 µM (PDGFR-beta) [%] | Compound | other results
0 | 9 | -13 | -6 | 22 | -3 | -13 | -8 | 9 | 0 | 9 | -5 | 5 | 21 | 5 | 4 | -8 | -3 | 0 | -11 | Nc1cccc(Nc2nc(C3CC3)nc3sc4c(c23)CCCC4)c1 [Compound 12, N-(2-Cyclopropyl-5,6,7,8-tetrahydro-benzo[4,5]thieno[2,3-d]pyrimidin-4-yl)-benzene-1,3-diamine] | melting point: 185.9 °C
-22 | 25 | -19 | -10 | -6 | 6 | -7 | -1 | -26 | -14 | 19 | -3 | 98 | -5 | 6 | 6 | -5 | 16 | 3 | 4 | Fc1cccc(Nc2ncnc3sc4c(c23)CCCC4)c1 [Compound 2, (3-Fluoro-phenyl)-(5,6,7,8-tetrahydro-benzo[4,5]thieno[2,3-d]pyrimidin-4-yl)-amine] | IC50 (EGFR): 12.4 nM; melting point: 210.6 °C
-4 | 6 | -3 | -7 | -3 | 0 | -1 | -3 | 2 | -4 | -6 | -4 | 72 | 11 | 12 | 5 | -12 | -5 | 2 | -4 | N#Cc1cccc(Nc2nc(C3CC3)nc3sc4c(c23)CCCC4)c1 [Compound 14, 3-(2-Cyclopropyl-5,6,7,8-tetrahydro-benzo[4,5]thieno[2,3-d]pyrimidin-4-ylamino)-benzonitrile] | melting point: 176.3 °C

The remaining lines, values behind:

Compound | inhibition at 10 µM (RSK1) [%] | inhibition at 10 µM (P56Lck) [%] | inhibition at 10 µM (Abl) [%] | inhibition at 10 µM (cMet) [%] | inhibition at 10 µM (InsR) [%] | inhibition at 10 µM (CK1-alpha) [%] | inhibition at 10 µM (AKT1/PKBa) [%] | inhibition at 10 µM (CDK2/CycA) [%] | inhibition at 10 µM (P70S6K) [%] | inhibition at 10 µM (MAPK-ERK1) [%] | inhibition at 10 µM (IKK-beta) [%] | inhibition at 10 µM (Jnk1a1) [%] | inhibition at 10 µM (EGFR) [%] | inhibition at 10 µM (SRPK1) [%] | inhibition at 10 µM (ROCK2) [%] | inhibition at 10 µM (c-Src) [%] | inhibition at 10 µM (Kit) [%] | inhibition at 10 µM (c-Raf) [%] | inhibition at 10 µM (GSK-3beta) [%] | inhibition at 10 µM (PDGFR-beta) [%] | other results
Fc1ccccc1Nc1ncnc2sc3c(c12)CCCC3 [Compound 1, (2-Fluoro-phenyl)-(5,6,7,8-tetrahydro-benzo[4,5]thieno[2,3-d]pyrimidin-4-yl)-amine] | -18 | 10 | 10 | 1 | -7 | 6 | -5 | 3 | -23 | -8 | 23 | -4 | 97 | 11 | 3 | 13 | 13 | 23 | 7 | 4 | melting point: 160.7 °C
Nc1ccc(Nc2ncnc3sc4c(c23)CCCC4)cc1 [Compound 8, N-(5,6,7,8-Tetrahydro-benzo[4,5]thieno[2,3-d]pyrimidin-4-yl)-benzene-1,4-diamine] | 6 | 2 | 19 | 9 | 36 | 4 | 4 | 12 | 7 | 12 | 16 | 20 | 96 | -4 | -11 | 16 | 20 | 11 | 8 | 6 | melting point: 203.1 °C
Brc1cccc(Nc2ncnc3sc4ccccc4c23)c1 [Compound 23, Benzo[4,5]thieno[2,3-d]pyrimidin-4-yl-(3-bromo-phenyl)-amine] | -4 | 4 | -10 | 4 | 4 | 7 | 9 | 12 | -1 | 8 | -5 | -10 | 99 | 6 | 2 | 7 | 6 | 3 | -3 | 10 | IC50 (EGFR): 8.08 nM; melting point: 160 °C
Fc1ccc(Nc2ncnc3sc4c(c23)CCCC4)cc1 [Compound 6, (4-Fluoro-phenyl)-(5,6,7,8-tetrahydro-benzo[4,5]thieno[2,3-d]pyrimidin-4-yl)-amine] | 19 | 11 | 4 | 4 | 44 | 7 | -8 | 11 | -7 | 5 | 8 | 15 | 99 | 9 | 6 | 12 | 7 | 12 | -1 | -12 | IC50 (EGFR): 10.5 nM
